Measured values: patent publication US20230096766A1, “AMINO ACID HAVING FUNCTIONAL GROUP CAPABLE OF INTERMOLECULAR HYDROGEN BONDING, PEPTIDE COMPOUND CONTAINING SAME AND METHOD FOR PRODUCTION THEREOF” (Chugai Seiyaku Kabushiki Kaisha, priority 2018, published 2023)
*1 amine or outer side, *2 acyl side, *3 side chain or, on linkers, in order; H or OH if unused. Where a SMILES comes first, the peptide text is derived from it. Bridges are numbered along the chain shown (N, C = ends). [ ]: non-standard residue; d: D form. The star is where a group is joined. ξ: configuration not given here. Phe(3-OMe,4-CONHMs) = COc1cc(C[C@H](N)C(=O)O)ccc1C(=O)NS(C)(=O)=O; Phe(3-CONHMe,4-OMe) = CNC(=O)c1cc(C[C@H](N)C(=O)O)ccc1OC; X1 = COc1cc(C[C@H](N[*:1])C(=O)[*:2])ccc1C(=O)NO; NMePhe(3-Cl) = CN[C@@H](Cc1cccc(Cl)c1)C(=O)O; X12 = O=C([C@H](CCCC(O)C(F)(F)F)N[*:1])[*:2]; Tyr(3-F) = N[C@@H](Cc1ccc(O)c(F)c1)C(=O)O; NMeW = CN[C@@H](Cc1c[nH]c2ccccc12)C(=O)O; Propyl(2,2-Me2,3-OH) = CC(C)(CO)C*; NMeF = CN[C@@H](Cc1ccccc1)C(=O)O; NMeGABA = CN(CCCC(=O)[*:2])[*:1]; NMeI = CC[C@H](C)[C@H](NC)C(=O)O; Butyl(3-Me,3-OH) = CC(C)(O)CC*; NMeD = CN[C@@H](CC(=O)O)C(=O)O; NMeL = CN[C@@H](CC(C)C)C(=O)O; Propyl(2R-OH) = C[C@@H](O)C*; Butyl(3S-OH) = C[C@H](O)CC*; NMeV = CN[C@H](C(=O)O)C(C)C; NMeA = CN[C@@H](C)C(=O)O; Piperidide = C1CCN(*)CC1; CH2CMe2OH = CC(C)(O)C*; NBuGly = CCCCNCC(=O)O; ξL = CC(C)CC(N)C(=O)O; NPrGly = CCCNCC(=O)O; ξS = NC(CO)C(=O)O; Sar = CNCC(=O)O; tBu = CC(C)(C)*

Test: in vitro
Settings: human
[1] = Caco-2, Caco-2 (membrane permeability)

SMILES	Papp (Caco-2, Caco-2 (cm/sec))	also measured
COc1cc(C[C@@H]2NC(=O)[C@H](CC(C)C)N(C)C(=O)[C@H](COC(C)(C)C)NC(=O)[C@H](Cc3ccccc3)N(C)C(=O)[C@H](CC(C)C)N(C)C(=O)[C@H](C)NC(=O)[C@H](CC(C)C)N(C)C(=O)CCCN(C)C(=O)C[C@@H](C(=O)N3CCCCC3)NC(=O)[C@H](CC(C)C)N(C)C(=O)[C@H](CC(C)C)N(C)C2=O)ccc1C(=O)NS(C)(=O)=O [AP141] ([NMeGABA][NMeL]A[NMeL][NMeF]S(tBu)[NMeL][Phe(3-OMe,4-CONHMs)][NMeL][NMeL]D-Piperidide; lactam N-11)	< 0.27 ×10⁻⁶ cm/s	
CCCCN1CC(=O)N(C)[C@@H](Cc2ccccc2)C(=O)N[C@@H]([C@@H](C)CC)C(=O)N(C)[C@@H](CC(C)C)C(=O)N[C@@H]([C@@H](C)O)C(=O)N(CCCC)CC(=O)N(C)[C@@H](Cc2ccccc2)C(=O)N(C)[C@@H](CC(C)C)C(=O)N[C@@H](CCC(=O)NC)C(=O)N(C)[C@@H]([C@@H](C)CC)C(=O)N[C@H](C(=O)N2CCCCC2)CC1=O [Compound J06] ([NBuGly][NMeF]I[NMeL]T[NBuGly][NMeF][NMeL]E(NHMe)[NMeI]D-Piperidide; lactam N-11)		Papp [1]: 0.0085 ×10⁻⁶ cm/s
CCCCN1CC(=O)N(C)[C@@H](CC(C)C)C(=O)N[C@@H](COC(C)(C)C)C(=O)N(C)[C@@H](Cc2ccccc2)C(=O)N(C)[C@@H](CC(C)C)C(=O)N[C@H](C(=O)N2CCCCC2)CC(=O)N[C@H](C(C)C)C(=O)N(C)[C@@H](C(C)C)C(=O)N[C@@H](Cc2ccc(C(=O)NO)c(OC)c2)C(=O)N(C)[C@@H](CC(C)C)C(=O)N[C@@H]([C@@H](C)O)C1=O [AP256] ([dV][NMeV][X1][NMeL]T[NBuGly][NMeL]S(tBu)[NMeF][NMeL]D-Piperidide; lactam N-11)	0.08 ×10⁻⁶ cm/s	
CC(C)C[C@H]1C(=O)N(C)[C@@H](Cc2c[nH]c3ccccc23)C(=O)N(C)[C@@H](Cc2ccccc2)C(=O)N[C@@H]([C@@H](C)O)C(=O)N(C)[C@@H](C)C(=O)N(C)[C@@H](CC(C)C)C(=O)N[C@H](C(=O)N2CCCCC2)CC(=O)N(C)[C@@H](C)C(=O)N(C)[C@@H](CC(C)C)C(=O)N(C)[C@@H](CC(C)C)C(=O)N[C@@H](C(C)C)C(=O)N1C [pd109] ([NMeA][NMeL][NMeL]V[NMeL][NMeW][NMeF]T[NMeA][NMeL]D-Piperidide; lactam N-11)	0.0092 ×10⁻⁶ cm/s	
CCCN1CC(=O)N(C)[C@@H](Cc2ccccc2)C(=O)N[C@@H]([C@@H](C)CC)C(=O)N(C)[C@@H](CC(C)C)C(=O)N[C@@H]([C@@H](C)O)C(=O)N(CCC)CC(=O)N(C)[C@@H](Cc2ccccc2)C(=O)N(C)[C@@H](CC(C)C)C(=O)N[C@@H](COCC(C)(C)O)C(=O)N(C)[C@@H](C(C)C)C(=O)N[C@H](C(=O)N2CCCCC2)CC1=O [AP09] ([NPrGly][NMeF]I[NMeL]T[NPrGly][NMeF][NMeL]S(CH2CMe2OH)[NMeV]D-Piperidide; lactam N-11)	1.1 ×10⁻⁶ cm/s	
CC(C)C[C@H]1C(=O)N[C@@H](COC(C)(C)C)C(=O)N[C@@H]([C@@H](C)O)C(=O)N(C)[C@@H](Cc2ccccc2)C(=O)N[C@H](C(=O)N2CCCCC2)CC(=O)N[C@@H](C)C(=O)N(C)[C@@H](Cc2ccccc2)C(=O)N(C)[C@@H](C)C(=O)N(C)[C@@H](Cc2ccccc2)C(=O)N(C)[C@@H](CC(C)C)C(=O)N[C@@H](Cc2ccccc2)C(=O)N1C [pd237] (A[NMeF][NMeA][NMeF][NMeL]F[NMeL]S(tBu)T[NMeF]D-Piperidide; lactam N-11)		Papp (Caco-2, Caco-2 (cm/sec) Papp): 0.089 ×10⁻⁶ cm/s
CC(C)C[C@@H]1NC(=O)[C@H](Cc2ccccc2)N(C)C(=O)[C@H](C)N(C)C(=O)C[C@@H](C(=O)N2CCCCC2)N(C)C(=O)[C@H](Cc2ccccc2)N(C)C(=O)[C@H](Cc2ccccc2)N(C)C(=O)[C@H](COC(C)(C)C)NC(=O)[C@H](C(C)C)N(C)C(=O)CN(C)C(=O)[C@H]([C@@H](C)O)NC(=O)[C@H](CC(C)C)N(C)C1=O [pd202] ([NMeA][NMeF]L[NMeL]T[Sar][NMeV]S(tBu)[NMeF][NMeF][NMeD]-Piperidide; lactam N-11)	2.1 ×10⁻⁶ cm/s	
CCCN1CC(=O)N(C)[C@@H](CC(C)C)C(=O)N[C@H](C(=O)N2CCCCC2)CC(=O)N(C)[C@@H](C)C(=O)N[C@@H](COCC(C)(C)O)C(=O)N(C)[C@@H](CC(C)C)C(=O)N(C)[C@@H](Cc2ccccc2)C(=O)N[C@@H](CC(C)C)C(=O)N(C)[C@@H](Cc2ccccc2)C(=O)N(C)[C@@H]([C@@H](C)CC)C(=O)N[C@@H]([C@@H](C)O)C1=O [AP05] ([NMeA]S(CH2CMe2OH)[NMeL][NMeF]L[NMeF][NMeI]T[NPrGly][NMeL]D-Piperidide; lactam N-11)	2.8 ×10⁻⁶ cm/s	
CC(C)C[C@H]1C(=O)N[C@@H]([C@@H](C)O)C(=O)N(C)[C@@H](CC(C)C)C(=O)N(C)[C@@H](CC(C)C)C(=O)N[C@H](C(=O)N2CCCCC2)CC(=O)N(C)CCCC(=O)N(C)[C@@H](C(C)C)C(=O)NC(COCC[C@H](C)O)C(=O)N(C)[C@@H](Cc2ccccc2)C(=O)N(C)[C@@H](Cc2cccc(Cl)c2)C(=O)N[C@@H](COC(C)(C)C)C(=O)N1C (stereo partly drawn) [AP101] ([NMeGABA][NMeV][ξS](Butyl(3S-OH))[NMeF][NMePhe(3-Cl)]S(tBu)[NMeL]T[NMeL][NMeL]D-Piperidide; lactam N-11)	0.59 ×10⁻⁶ cm/s	
CCCCN1CC(=O)N(C)[C@@H](Cc2ccccc2)C(=O)N(C)[C@@H](CC(C)C)C(=O)N[C@@H](COC(C)(C)C)C(=O)N(C)[C@@H](CC(C)C)C(=O)N[C@H](C(=O)N2CCCCC2)CC(=O)N(C)CC(=O)N(C)[C@@H](Cc2cccc(Cl)c2)C(=O)N[C@@H](COC[C@@H](C)O)C(=O)N(C)[C@@H](CC(C)C)C(=O)N[C@@H]([C@@H](C)O)C1=O [AP77] ([Sar][NMePhe(3-Cl)]S(Propyl(2R-OH))[NMeL]T[NBuGly][NMeF][NMeL]S(tBu)[NMeL]D-Piperidide; lactam N-11)	1 ×10⁻⁶ cm/s	
CC[C@H](C)[C@@H]1NC(=O)[C@H](CC(C)C)N(C)C(=O)[C@H](CCCC(O)C(F)(F)F)NC(=O)[C@H](Cc2ccccc2)N(C)C(=O)CN(C)C(=O)C[C@@H](C(=O)N2CCCCC2)NC(=O)[C@H](CC(C)C)N(C)C(=O)[C@H](COC(C)(C)C)NC(=O)[C@H](CC(C)C)N(C)C(=O)[C@H](Cc2ccccc2)N(C)C(=O)CN(C)C1=O (stereo partly drawn) [Compound D17] ([Sar][NMeF][X12][NMeL]I[Sar][NMeF][NMeL]S(tBu)[NMeL]D-Piperidide; lactam N-11)		Papp [1]: 1 ×10⁻⁶ cm/s
CC(C)C[C@H]1C(=O)N[C@@H](Cc2ccc(O)cc2)C(=O)N(C)[C@@H](CC(C)C)C(=O)N(C)[C@@H](Cc2ccccc2)C(=O)N[C@@H](COC(C)(C)C)C(=O)N(C)[C@@H](CC(C)C)C(=O)N[C@@H]([C@@H](C)O)C(=O)N(C)[C@@H](CC(C)C)C(=O)N(C)[C@@H](CC(C)C)C(=O)N[C@H](C(=O)N2CCCCC2)CC(=O)N(C)CCCC(=O)N1C [Compound F04] ([NMeGABA][NMeL]Y[NMeL][NMeF]S(tBu)[NMeL]T[NMeL][NMeL]D-Piperidide; lactam N-11)	0.13 ×10⁻⁶ cm/s	
CCCN1CC(=O)N(C)[C@@H](Cc2ccccc2)C(=O)N[C@@H]([C@@H](C)CC)C(=O)N(C)[C@@H](CC(C)C)C(=O)N[C@@H]([C@@H](C)O)C(=O)N(C)CC(=O)N(C)[C@@H](Cc2ccccc2)C(=O)N(C)[C@@H](CC(C)C)C(=O)N[C@@H](COCCC(C)(C)O)C(=O)N(C)[C@@H](CC(C)C)C(=O)N[C@H](C(=O)N2CCCCC2)CC1=O [AP59] ([NPrGly][NMeF]I[NMeL]T[Sar][NMeF][NMeL]S(Butyl(3-Me,3-OH))[NMeL]D-Piperidide; lactam N-11)	0.78 ×10⁻⁶ cm/s	
CCCCN1CC(=O)N(C)[C@@H](CC(C)C)C(=O)N[C@@H](COC(C)(C)C)C(=O)N(C)[C@@H](Cc2ccccc2)C(=O)N(C)[C@@H](CC(C)C)C(=O)N[C@H](C(=O)N2CCCCC2)CC(=O)N[C@H](C(C)C)C(=O)N(C)[C@@H](C(C)C)C(=O)N[C@@H](Cc2ccc(OC)c(C(=O)NC)c2)C(=O)N(C)[C@@H](CC(C)C)C(=O)N[C@@H]([C@@H](C)O)C1=O [AP35] ([dV][NMeV][Phe(3-CONHMe,4-OMe)][NMeL]T[NBuGly][NMeL]S(tBu)[NMeF][NMeL]D-Piperidide; lactam N-11)	2 ×10⁻⁶ cm/s	
COc1cc(C[C@@H]2NC(=O)[C@H](C(C)C)N(C)C(=O)[C@H](CC(C)C)N(C)C(=O)C(CC(C)C)NC(=O)[C@H](CC(C)C)N(C)C(=O)[C@H](CC(C)C)N(C)C(=O)[C@H](C)NC(=O)[C@H](CC(C)C)N(C)C(=O)C[C@@H](C(=O)N3CCCCC3)NC(=O)[C@H](CC(C)C)N(C)C(=O)CN(C)C2=O)ccc1C(=O)NS(C)(=O)=O (stereo partly drawn) [AP142] ([NMeL]A[NMeL][NMeL][ξL][NMeL][NMeV][Phe(3-OMe,4-CONHMs)][Sar][NMeL]D-Piperidide; lactam N-11)	0.63 ×10⁻⁶ cm/s	
CC(C)C[C@@H]1NC(=O)[C@H](CC(C)C)N(C)C(=O)[C@H](Cc2ccccc2)N(C)C(=O)CN(C)C(=O)[C@H]([C@@H](C)O)NC(=O)[C@H](CC(C)C)N(C)C(=O)[C@H](Cc2ccc(O)c(F)c2)NC(=O)[C@H](CC(C)C)N(C)C(=O)CN(C)C(=O)C[C@@H](C(=O)N2CCCCC2)NC(=O)[C@H](CC(C)C)N(C)C1=O [pd123] ([Sar][NMeL][Tyr(3-F)][NMeL]T[Sar][NMeF][NMeL]L[NMeL]D-Piperidide; lactam N-11)	0.44 ×10⁻⁶ cm/s	
CCCCN1CC(=O)N(C)[C@@H](Cc2ccccc2)C(=O)N(C)[C@@H](CC(C)C)C(=O)N[C@@H](COC(C)(C)C)C(=O)N(C)[C@@H](CC(C)C)C(=O)N[C@H](C(=O)N2CCCCC2)CC(=O)N(C)CC(=O)N(C)[C@@H](Cc2cccc(Cl)c2)C(=O)N[C@@H](CCCC(O)C(F)(F)F)C(=O)N(C)[C@@H](CC(C)C)C(=O)N[C@@H]([C@@H](C)O)C1=O (stereo partly drawn) [Compound D06] ([Sar][NMePhe(3-Cl)][X12][NMeL]T[NBuGly][NMeF][NMeL]S(tBu)[NMeL]D-Piperidide; lactam N-11)		Papp [1]: 0.23 ×10⁻⁶ cm/s
CC(C)C[C@@H]1NC(=O)[C@H](Cc2ccccc2)N(C)C(=O)[C@@H](C(C)C)NC(=O)C[C@@H](C(=O)N2CCCCC2)NC(=O)[C@H](CC(C)C)N(C)C(=O)[C@H](Cc2ccccc2)N(C)C(=O)[C@H](COCC(C)(C)CO)NC(=O)[C@H](CC(C)C)N(C)C(=O)CN(C)C(=O)[C@H]([C@@H](C)O)NC(=O)[C@H](CC(C)C)N(C)C1=O [AP118] ([dV][NMeF]L[NMeL]T[Sar][NMeL]S(Propyl(2,2-Me2,3-OH))[NMeF][NMeL]D-Piperidide; lactam N-11)	1.8 ×10⁻⁶ cm/s	
